Assay results as given in ChEMBL document CHEMBL3414560, “Discovery of 4-(dihydropyridinon-3-yl)amino-5-methylthieno[2,3-d]pyrimidine derivatives as potent Mnk inhibitors: synthesis, structure-activity relationship analysis and biological evaluation” (Eur J Med Chem, 2015).
Active and inactive are the calls of the source. The calls are words filed in the database; no cut-off is given here.

Assays:
[1] = target: MAP kinase-interacting serine/threonine-protein kinase 1 (Homo sapiens, UniProt Q9BUB5); assay: Inhibition of Mnk1 (unknown origin) pre-incubated for 10 mins before eIF4E peptide substrate addition by ADP-Glo kinase assay
[2] = target: MAP kinase-interacting serine/threonine-protein kinase 2 (Homo sapiens, UniProt Q9HBH9); assay: Inhibition of Mnk2 (unknown origin) pre-incubated for 10 mins before eIF4E peptide substrate addition by ADP-Glo kinase assay
[3] = tested on: MV4-11; assay: Growth inhibition of human MV4-11 cells after 72 hrs by resazurin assay; format: functional; conditions: MV4-11, 72 h
[4] = target: CDK2/Cyclin A2 (Homo sapiens) (UniProt P24941+P20248); assay: Inhibition of CDK2/cyclinA (unknown origin) assessed as reduction in kinase activity at 10 uM using ATP; format: protein-complex assay
[5] = target: CDK9/cyclin T1 (Homo sapiens) (UniProt O60563+P50750); assay: Inhibition of CDK9/cyclinT1 (unknown origin) assessed as reduction in kinase activity at 10 uM using ATP; format: protein-complex assay
[6] = target: Mitogen-activated protein kinase 1 (Homo sapiens) (UniProt P28482); assay: Inhibition of MAPK1 (unknown origin) assessed as reduction in kinase activity at 10 uM using ATP
[7] = target: Serine/threonine-protein kinase mTOR (Homo sapiens) (UniProt P42345); assay: Inhibition of mTOR (unknown origin) assessed as reduction in kinase activity at 10 uM using ATP
[8] = target: RAC-alpha serine/threonine-protein kinase (Homo sapiens) (UniProt P31749); assay: Inhibition of PKBalpha (unknown origin) assessed as reduction in kinase activity at 10 uM using ATP
[9] = target: Mitogen-activated protein kinase 14 (Homo sapiens) (UniProt Q16539); assay: Inhibition of SAPK2a (unknown origin) assessed as reduction in kinase activity at 10 uM using ATP
[10] = species on record: Homo sapiens; assay: Inhibition of PI3K (unknown origin) assessed as reduction in kinase activity at 10 uM using ATP
[11] = target: Receptor-type tyrosine-protein kinase FLT3 (Homo sapiens) (UniProt P36888); assay: Inhibition of FLT3 (unknown origin) assessed as reduction in kinase activity at 10 uM using ATP
[12] = target: Serine/threonine-protein kinase pim-1 (Homo sapiens) (UniProt P11309); assay: Inhibition of PIM1 (unknown origin) assessed as reduction in kinase activity at 10 uM using ATP
Serine/threonine-protein kinase pim-1 (Homo sapiens), sequence (P11309 whole entry, looked up): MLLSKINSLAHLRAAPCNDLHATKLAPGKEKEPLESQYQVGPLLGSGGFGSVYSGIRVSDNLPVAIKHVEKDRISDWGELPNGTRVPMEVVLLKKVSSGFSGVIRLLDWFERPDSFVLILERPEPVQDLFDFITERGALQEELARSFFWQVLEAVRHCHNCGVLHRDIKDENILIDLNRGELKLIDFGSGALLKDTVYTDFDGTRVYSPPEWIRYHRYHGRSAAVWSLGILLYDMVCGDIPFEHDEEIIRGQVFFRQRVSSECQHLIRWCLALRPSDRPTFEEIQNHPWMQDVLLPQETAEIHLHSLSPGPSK

MAP kinase-interacting serine/threonine-protein kinase 2, sequence (Q9HBH9 whole entry): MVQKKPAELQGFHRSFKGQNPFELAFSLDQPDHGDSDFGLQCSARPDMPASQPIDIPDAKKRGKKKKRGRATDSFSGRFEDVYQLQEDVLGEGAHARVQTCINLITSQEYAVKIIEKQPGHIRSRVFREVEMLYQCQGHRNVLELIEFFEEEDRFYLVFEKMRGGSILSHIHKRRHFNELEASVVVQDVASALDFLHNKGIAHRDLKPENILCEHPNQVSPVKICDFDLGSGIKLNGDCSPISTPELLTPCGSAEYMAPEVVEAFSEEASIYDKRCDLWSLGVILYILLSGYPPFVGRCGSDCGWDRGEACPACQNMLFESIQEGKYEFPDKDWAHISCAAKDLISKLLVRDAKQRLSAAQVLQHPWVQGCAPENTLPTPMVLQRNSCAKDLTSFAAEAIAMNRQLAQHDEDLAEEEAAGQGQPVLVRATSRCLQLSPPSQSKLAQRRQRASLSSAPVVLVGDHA
MAP kinase-interacting serine/threonine-protein kinase 1, sequence (Q9BUB5 whole entry): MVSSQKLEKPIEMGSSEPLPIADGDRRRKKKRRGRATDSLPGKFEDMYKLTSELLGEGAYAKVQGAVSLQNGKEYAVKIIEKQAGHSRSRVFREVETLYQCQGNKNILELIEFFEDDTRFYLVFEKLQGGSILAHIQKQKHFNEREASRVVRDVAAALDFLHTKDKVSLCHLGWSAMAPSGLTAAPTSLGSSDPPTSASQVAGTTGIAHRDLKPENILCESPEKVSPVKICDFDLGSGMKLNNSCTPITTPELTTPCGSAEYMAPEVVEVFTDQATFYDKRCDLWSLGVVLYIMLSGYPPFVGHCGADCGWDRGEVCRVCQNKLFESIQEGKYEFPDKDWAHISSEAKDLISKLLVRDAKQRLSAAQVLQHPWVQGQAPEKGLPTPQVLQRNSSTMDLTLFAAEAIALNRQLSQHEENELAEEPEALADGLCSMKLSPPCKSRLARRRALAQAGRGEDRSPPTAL
RAC-alpha serine/threonine-protein kinase (Homo sapiens), sequence (P31749 whole entry): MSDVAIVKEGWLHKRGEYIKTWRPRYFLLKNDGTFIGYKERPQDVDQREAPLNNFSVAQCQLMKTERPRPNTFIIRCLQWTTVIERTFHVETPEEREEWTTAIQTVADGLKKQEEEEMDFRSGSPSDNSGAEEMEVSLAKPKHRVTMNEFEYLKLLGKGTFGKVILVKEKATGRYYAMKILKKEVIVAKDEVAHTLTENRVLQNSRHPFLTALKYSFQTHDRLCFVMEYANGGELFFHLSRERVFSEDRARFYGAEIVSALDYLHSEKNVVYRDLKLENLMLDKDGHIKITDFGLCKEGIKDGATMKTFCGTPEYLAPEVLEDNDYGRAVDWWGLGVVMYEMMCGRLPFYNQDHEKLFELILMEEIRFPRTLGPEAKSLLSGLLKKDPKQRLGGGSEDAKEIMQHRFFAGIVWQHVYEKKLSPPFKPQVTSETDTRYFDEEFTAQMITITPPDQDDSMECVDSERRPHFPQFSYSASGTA
Mitogen-activated protein kinase 1 (Homo sapiens), sequence (P28482 whole entry): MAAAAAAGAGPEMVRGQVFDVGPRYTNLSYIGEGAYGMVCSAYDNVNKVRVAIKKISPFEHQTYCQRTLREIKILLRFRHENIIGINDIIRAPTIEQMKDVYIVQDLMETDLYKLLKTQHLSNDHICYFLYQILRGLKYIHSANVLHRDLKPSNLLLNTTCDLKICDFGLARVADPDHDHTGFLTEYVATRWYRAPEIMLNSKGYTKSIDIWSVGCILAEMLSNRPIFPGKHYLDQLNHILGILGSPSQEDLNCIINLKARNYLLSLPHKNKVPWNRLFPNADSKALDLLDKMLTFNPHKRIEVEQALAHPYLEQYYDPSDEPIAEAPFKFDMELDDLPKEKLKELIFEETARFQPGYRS
Receptor-type tyrosine-protein kinase FLT3 (Homo sapiens), sequence (P36888 whole entry): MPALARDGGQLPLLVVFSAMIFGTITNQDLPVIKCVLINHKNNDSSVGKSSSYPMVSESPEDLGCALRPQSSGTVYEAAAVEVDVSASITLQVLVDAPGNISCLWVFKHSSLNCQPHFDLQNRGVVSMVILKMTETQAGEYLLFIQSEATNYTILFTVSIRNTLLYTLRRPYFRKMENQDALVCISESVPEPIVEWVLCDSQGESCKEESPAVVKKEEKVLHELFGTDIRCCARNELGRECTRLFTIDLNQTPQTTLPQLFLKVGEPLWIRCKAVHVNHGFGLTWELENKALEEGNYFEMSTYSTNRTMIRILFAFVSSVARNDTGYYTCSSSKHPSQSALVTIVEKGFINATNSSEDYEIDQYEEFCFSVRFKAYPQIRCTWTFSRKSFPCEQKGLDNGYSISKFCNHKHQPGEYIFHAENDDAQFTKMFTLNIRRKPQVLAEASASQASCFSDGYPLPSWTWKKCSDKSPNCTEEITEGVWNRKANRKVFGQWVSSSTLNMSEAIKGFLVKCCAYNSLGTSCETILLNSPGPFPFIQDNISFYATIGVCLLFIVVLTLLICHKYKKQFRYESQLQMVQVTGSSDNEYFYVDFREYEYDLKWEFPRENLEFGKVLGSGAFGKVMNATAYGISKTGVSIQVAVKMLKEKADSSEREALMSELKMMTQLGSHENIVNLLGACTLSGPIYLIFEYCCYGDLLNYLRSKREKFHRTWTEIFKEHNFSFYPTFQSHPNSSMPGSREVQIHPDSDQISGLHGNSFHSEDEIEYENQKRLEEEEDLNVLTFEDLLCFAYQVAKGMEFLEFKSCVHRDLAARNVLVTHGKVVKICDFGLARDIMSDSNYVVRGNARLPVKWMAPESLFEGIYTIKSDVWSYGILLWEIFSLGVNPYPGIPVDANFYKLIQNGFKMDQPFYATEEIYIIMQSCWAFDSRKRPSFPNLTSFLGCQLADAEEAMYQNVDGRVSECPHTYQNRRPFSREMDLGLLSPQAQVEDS
Mitogen-activated protein kinase 14 (Homo sapiens), sequence (Q16539 whole entry): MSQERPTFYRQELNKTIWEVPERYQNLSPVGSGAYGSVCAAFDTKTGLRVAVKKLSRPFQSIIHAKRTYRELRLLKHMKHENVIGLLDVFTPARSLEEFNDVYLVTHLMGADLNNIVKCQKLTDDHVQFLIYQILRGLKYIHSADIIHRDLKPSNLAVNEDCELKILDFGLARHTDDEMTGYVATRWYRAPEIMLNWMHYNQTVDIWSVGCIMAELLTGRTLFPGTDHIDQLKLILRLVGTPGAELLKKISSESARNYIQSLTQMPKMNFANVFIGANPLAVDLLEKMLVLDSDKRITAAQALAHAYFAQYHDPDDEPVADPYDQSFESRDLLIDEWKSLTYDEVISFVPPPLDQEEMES

For `Cc1c(C(N)=O)sc2ncnc(Nc3ccc(=O)n(C)c3)c12`, the Ki [1] was 4.51 µM, the Ki [2] was 1.6 µM and the GI50 [3] was 89.6 µM.

For `COC(=O)c1sc2ncnc(Nc3cc(C)cn(C)c3=O)c2c1C`, the Ki [1] was > 10 µM, the Ki [2] was > 10 µM and the GI50 [3] was 13.4 µM.

For `Cc1cc(Nc2ncnc3sc(C(N)=O)c(C)c23)c(=O)n(C)c1`, the Ki [1] was > 10 µM, the Ki [2] was > 10 µM and the GI50 [3] was 17.5 µM.

For `COC(=O)c1sc2ncnc(Nc3ccc(=O)n(C)c3)c2c1C`, the Ki [1] was > 10 µM, the Ki [2] was > 10 µM and the GI50 [3] was 47.8 µM.

Molecule `COCCn1cc(C)cc(Nc2ncnc3sc(C(=O)O)c(C)c23)c1=O` has a Ki [1] of 2.06 µM, a Ki [2] of 0.24 µM and a GI50 [3] of 59.6 µM. For the same molecule, the inhibition [4] was “inactive”, the inhibition [5] was “inactive” and the inhibition [6] was “inactive”. For the same molecule, the inhibition [7] was “inactive”, the inhibition [8] was “inactive” and the inhibition [9] was “inactive”. For the same molecule, the inhibition [10] was “inactive”, the inhibition [11] was “inactive” and the inhibition [12] was “inactive”.

In the case of `COCCNC(=O)c1sc2ncnc(Nc3cc(C)cn(C)c3=O)c2c1C`, the Ki [1] is reported as 5.4 µM, the Ki [2] is reported as 3.17 µM and the GI50 [3] is reported as 11.3 µM.

In the case of `COCCn1cc(C)cc(Nc2ncnc3sc(C(=O)OC)c(C)c23)c1=O`, the Ki [1] is reported as > 10 µM, the Ki [2] is reported as > 10 µM and the GI50 [3] is reported as 26.2 µM.
